Results on seven molecules are retold here after patent US20030207924A1, “Compounds that modulate PPAR activity and methods of preparation” (priority 2002, published 2003).

Like-named read-outs stand apart in the source and are kept apart here.

Assay [1] deals with T1, hPPARβ chimeric receptor (Homo sapiens, UniProt Q03181).
T1 construct: "expression plasmids encoding hPPARα, hPPARβ or mPPARγ chimeric receptors"
T1 sequence (Q03181 171-441 limits assumed): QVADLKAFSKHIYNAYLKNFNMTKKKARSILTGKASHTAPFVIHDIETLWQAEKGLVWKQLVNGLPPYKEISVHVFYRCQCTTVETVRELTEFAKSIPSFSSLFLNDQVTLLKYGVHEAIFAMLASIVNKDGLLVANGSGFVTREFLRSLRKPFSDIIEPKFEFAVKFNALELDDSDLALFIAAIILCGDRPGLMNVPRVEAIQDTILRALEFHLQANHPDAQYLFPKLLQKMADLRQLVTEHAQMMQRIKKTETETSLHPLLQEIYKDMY
The experiment in a line: Transient transfection assay in HepG2 cells, Gal4-hPPARβ chimeric receptor, luciferase reporter (Test A). In kind it is cell-based. As for the experimental part:
(§1) 1. Test A. Transient Transfections Assay Using the HepG2 Hepatoma Cell Line.
(§2) HepG2 cells were transiently transfected with an expression plasmids encoding hPPARα, hPPARβ or mPPARγ chimeric receptors and a reporter containing the yeast upstream activating sequence (UAS) upstream of the viral E1B promoter controlling a luciferase reporter gene. In addition, the plasmid pRSVβ-gal was used to control for transfection efficiency. HepG2 cells were grown in DMEM supplemented with 10% FBS and […] non-essential amino acid. On the first day, cells were split into 100 mm dishes at 2.5×10^6/dish and incubated overnight at 37° C./5% CO2. On the second day the cells were transiently transfected with plasmid DNA encoding a chimeric receptor, the luciferase reporter gene; and β-gal. For each 100 mm dish, 15 μg of lucifease reporter (PG5E1b) DNA, 15 μg of Gal4-PPAR chimeric receptor DNA, and 1.5 μg of β-gal plasmid DNA were mixed with 1.4 ml of opti-MEM in the tube. 28 μl of LipoFectamine-2000 reagent was added to 1.4 ml of opti-MEM in the tube, and incubate for 5 min at RT. The diluted Lipofectamine-2000 reagent was combined with the DNA mixture, and incubate for 20 min at RT. After fresh medium was added to each 100 mm dish of cells, 2.8 ml of Lipofectamine2000-DNA mixture was added dropwise to the 100 mm dish containing 14 ml of medium, and incubate 37° C. overnight. On day three cells were trypsinized off the 100 mm dishes and re-plated on 96 well plates. Cells were plated at 2.5×10^4 cells per well in 150 μl of media and 50 μl of compound diluted by media was added. The test compounds added were in the range from 50 μM to 50 pM. After addition of compounds, the plates were incubated at 37° C. for 24 hours. Subsequently cells were washed with once with 100 μl of PBS, lysed, and processed for measuring luciferase and β-gal activity using Dual-Light luciferase kit from Tropix®, according to the manufacturer's recommendations, on an EG&G Bethold MicroLumat LB96P luminometer. EC50 values were obtained using the GraphPad Prism™ program.
In general terms: In a reporter assay the amount or activity of a reporter protein is the signal.

Assay [2] deals with T2, hPPARα chimeric receptor (Homo sapiens, UniProt Q07869).
T2 construct: "expression plasmids encoding hPPARα, hPPARβ or mPPARγ chimeric receptors"
T2 sequence (Q07869 200-468 limits assumed): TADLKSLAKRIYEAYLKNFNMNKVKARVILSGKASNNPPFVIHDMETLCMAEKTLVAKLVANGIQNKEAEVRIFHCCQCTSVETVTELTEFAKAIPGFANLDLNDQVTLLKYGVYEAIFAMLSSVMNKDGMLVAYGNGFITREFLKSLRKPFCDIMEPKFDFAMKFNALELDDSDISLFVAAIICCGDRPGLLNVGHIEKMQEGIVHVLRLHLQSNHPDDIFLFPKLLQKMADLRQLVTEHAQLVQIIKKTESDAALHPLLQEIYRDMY
The experiment in a line: Transient transfection assay in HepG2 cells, Gal4-hPPARα chimeric receptor, luciferase reporter (Test A). It is filed as cell-based. As for the experimental part: as §1
as §2, with “program. […] Accordingly, the compounds of the present invention should find considerable therapeutic applications for hypercholesterolemia and hyperlipidemia.” for “program.”

Where [3] appears, read: HepG2 cells, hPPARα chimeric receptor, luciferase reporter, 24 hours, read-out: EC50-α (Hep G2-hAlpha EC50).

`COc1cc(OC)c(SCc2sc(-c3ccc(C(F)(F)F)cc3)nc2C)cc1CCC(=O)O` [Example 19, 3-{2,4-Dimethoxy-5-[4-methyl-2-(4-trifluoromethyl-phenyl)-thiazol-5-ylmethylsulfanyl]-phenyl}-propionic acid]: the concentration giving a half-maximal response (EC50) amounted to 1120 nM in assay [1] and 1.54 µM in assay [2] (setting [3]).
On to `COc1cc(SCc2sc(-c3ccc(C(F)(F)F)cc3)nc2C)c(OC)cc1CCC(=O)O` [Example 20, 3-{2,5-Dimethoxy-4-[4-methyl-2-(4-trifluoromethyl-phenyl)-thiazol-5-ylmethylsulfanyl]-phenyl}-propionic acid], for which the EC50 in assay [1] was found to be 34.9 nM; in assay [2] (setting [3]), 0.146 µM.
As for `COc1cc(OC)c(SCc2sc(-c3ccc(C(F)(F)F)cc3)nc2C)cc1CC(=O)O` [Example 21, {2,4-Dimethoxy-5-[4-methyl-2-(4-trifluoromethyl-phenyl)-thiazol-5-ylmethylsulfanyl]}-acetic acid], the EC50 is 1250 nM in assay [1] and 0.442 µM in assay [2] (setting [3]).
Consider `Cc1nc(-c2ccc(C(F)(F)F)cc2)sc1CSc1ccc(CC(C(=O)O)n2cccc2)cc1` (centres unmarked) [Example 24, 3-{4-[4-Methtyl-2-(4-trifluoromethyl-phenyl)-thiazol-5-ylmethylsulfanyl]-phenyl}-2-pyrrol-1-yl-propionic acid], for which the “EC50-β (Hep G2-hBeta EC50)” value in assay [1] (HepG2 cells, hPPARβ chimeric receptor, luciferase reporter, 24 hours) was determined as 2000 µM. Also, the EC50 in assay [2] (setting [3]) worked out at 2000 µM.
Turning to `Cc1cc(SCc2sc(-c3ccc(C(F)(F)F)cc3)nc2C)c(F)cc1OCC(=O)O` [Example 26, 2-[5-fluoro-2-methyl-4-({4-methyl-2-[4-(trifluoromethyl)phenyl](1,3-thiazol-5-yl)}methylthio)phenoxy]acetic acid], the EC50 in assay [1] worked out at 0.07 nM; in assay [2] (setting [3]) it was 0.17 µM.
Regarding `Cc1cc(SCc2sc(-c3ccc(C(F)(F)F)cc3)nc2C)c(Cl)cc1OCC(=O)O` [Example 31, {5-Chloro-2-methyl-4-[4-methyl-2-(4-trifluoromethyl-phenyl)-thiazol-5-ylmethylsulfanyl]-phenoxy}-acetic acid], the EC50 in assay [1] came out at 105 nM; in assay [2] (setting [3]), 2.05 µM.
Turning to `COCc1cc(OCC(=O)O)c(C)cc1SCc1sc(-c2ccc(C(F)(F)F)cc2)nc1C` [Example 32, 2-[5-(methoxymethyl)-2-methyl-4-({4-methyl-2-[4-(trifluoromethyl)phenyl](1,3-thiazol-5-yl)}methylthio)phenoxy]acetic acid], the EC50 in assay [1] stood at 649 nM; in assay [2], 0.625 µM.

As a reminder, the EC50 is the concentration needed to bring the measured effect to its halfway point.
